SMILES strings stand for the structures.

Test [1] relates to CD1 mice inoculated with MPTP (subchronic). As to the kind of experiment: Subchronic MPTP model of Parkinson's disease in mice. The class given is in vivo. How it is done:
All the animals included for the experimental process were 12-week old males of the CD1 strain. The experiments were conducted strictly following the Guidance on the Operation of Animals (Scientific Procedures, Act. 1986). The animals had their respective quarantine period and were treated with maximum precaution to minimize possible contaminations during inoculations and handling.
Twenty animals were used in this assay and the treatments were all conducted by intraperitoneal (i.p.) route with a volume of 100 μl, according to the following regimens: • i) PBS+MPTP+PBS regimen: 10 animals were initially treated with a daily dose for 2 days of PBS, from the second day onwards the animals were inoculated with 1 daily dose of MPTP at 30 mg/Kg for 5 days, at intervals of 2 hours by i.p. route. For the next 21 days they were administered 3 weekly doses of PBS. • ii) NST0037+MPTP+NST0037 regimen: 10 animals were initially treated with a daily dose for 2 days of NST0037 at 50 mg/kg, from the second day onwards the animals were inoculated with 1 daily dose of MPTP at 30 mg/Kg for 5 days, at intervals of 2 hours by i.p. route. For the next 21 days they were administered 3 weekly doses of NST0037 at 50 mg/kg.
Seven days before starting the treatments and at 7, 14 and 21 days post-inoculation of MPTP, the animals were subjected to a locomotor resistance test referred to as the Rotarod test for 2 minutes, recording the time the animals resisted walking over a cylinder which increased its speed from 4 to 40 r.p.m.
Once the treatment time of 21 days ended, the animals were sacrificed and the brains were dissected. The brain samples were processed and included in paraffin. For the analysis of the presence of dopaminergic neurons in the substantia nigra, the immunohistochemistry against the tyrosine-hydroxylase (TH) protein was performed in 5 μm thick sagittal sections.
Once the treatment time of 21 days ended, the animals were sacrificed and the brains were dissected. The brain samples were processed and included in paraffin. […]

A further test has as its system seladin-1/DHCR24 gene. The experiment in a line: seladin-1/DHCR24 gene expression in SK-N-MC cells (real-time quantitative RT-PCR). The class given is cell-based, human. The settings on record: 1, 4, 10 or 40 μM, 24 hours. How it is done: (§1) The assay was performed on human neuroblastoma SK-N-MC cells in culture from the American Type Culture Collection (ATCC), in all cases strict rules of sterility were followed and the manipulation was performed in class II biological safety cabinets following European standard EN 12469. The cells were maintained in the following culture medium: Minimum Essential Medium Eagle (MEM) supplemented with 1 mM sodium pyruvate, 2 mM L-glutamine, 0.1 mM non-essential amino acids, 0.05 mg/ml gentamicin and 10% fetal bovine serum.
The expression of the seladin-1/DHCR24 gene (NCBI Reference Sequence: NM_014762.3) was analyzed by means of real-time quantitative RT-PCR in comparison with memantine (a drug normally used to treat Alzheimer's disease). […] The total RNA was extracted by means of the High Pure RNA Isolation kit (Roche) and the amount and quality of the RNA were analyzed by means of spectrophotometry (Infinite 200 with NanoQuant, Tecan) and viewing of the 18S and 28S bands by means of electrophoresis. The RT-PCR was performed by means of two steps, first, the mRNA was changed to cDNA using the RNA to cDNA kit (Applied Biosystem) and the gene expression was subsequently analyzed by means of TaqMan probes using the validated probes Hs00207388_m1 for seladin-1/DHCR24 and Hs99999901_s1 for 18S (used to normalize the results) in the 7500 Fast Real-Time PCR System equipment (Applied Biosystem). […]

The subject of test [2] is human neuroblastoma SK-N-MC cells. The experiment in a line: Protection against neuronal death induced by endoplasmic reticulum stress (tunicamycin), WST-1. The settings on record: 40 μM NST0037; 24 μM tunicamycin. In kind it is cell-based. How it is done:
as §1
The inhibition caused by compound NST0037 of cell death caused by treatment with tunicamycin generating reticular stress was analyzed. Tunicamycin is an inhibitor of protein N-glycosylation, causing abnormal protein folding in the endoplasmic reticulum, therefore said proteins are accumulated and cause stress, resulting in cell death. These cells, not exceeding 15 passages, were seeded on 96-well plates treated for adherent cells with a cell concentration of 5×10^4 cells/well; 3 wells of the plate were seeded for each condition of the assay. […]
The cells were incubated (at 37° C. and 5% CO2) with these treatments for 22 hours, after which time WST-1 reagent (Roche) was added. […] The formazan that is formed can be detected colorimetrically since it has an absorbance of 440 nm. The reading was taken in a plate reader at 440 nm 2 hours after adding the reagent.
A general note: Tetrazolium dyes change colour on reduction, which living cells bring about.

For `CCC(CC)C(=O)O[C@H]1C[C@@H](C)C=C2C=C[C@H](C)[C@H](CC[C@@H]3C[C@@H](O)CC(=O)O3)[C@H]21` [NST0037, (1S,2S,6R,8S,8aR)-1,2,6,7,8,8a-hexahydro-3,7-dimethyl-8-[2-[(2R,4R)-tetrahydro-4-hydroxy-6-oxo-2H-pyran-2-yl]ethyl]-1-naphthalenyl-2-ethyl-butyrate], the “motor resistance (Rotarod test)” value in test [1] (NST0037+MPTP+NST0037, 50 mg/kg i.p., MPTP 30 mg/Kg daily 5 days, up to 21 days) was “prevents the motor deterioration of the animals”. Besides, in test [1] (NST0037+MPTP+NST0037, 21 days), the “dopaminergic neurons (tyrosine-hydroxylase) in substantia nigra” value was “larger number of TH-positive cells” and the “lipid peroxidation (HNE) in neurons of substantia nigra” value is on record as “modest number of isolated neurons with HNE-positive labeling”. In addition, the seladin-1/DHCR24 gene expression result with seladin-1/DHCR24 gene is “increase of seladin-1/DHCR24 gene expression”. Moreover, the “protection against death caused by Tm” value in test [2] came to 55%.

(Values after patent US20140309295A1, “ANTIEPILEPTIC, HYPOCHOLESTEROLEMIC AND NEUROPROTECTIVE COMPOUND” (NEURON BIOPHARMA, S.A., priority 2009, published 2014).)
